These results are taken from patent US3934036A, “N-benzenesulfonyl-β-alanine hydrazide useful as an immunosuppressive agent” (priority 1975, dated 1976).

As usually defined, the LD50 is the dose at which mortality reaches 50%. A high value points to lower toxicity.

Entries after “also recorded” stand apart in the source; their conditions may differ.

One data set has as its system 7S plaque-forming cells. Put plainly: Antibody production to sheep erythrocytes, 7S plaque-forming cells, comparison with other agents. To be noted: i.p.; for Spleen weight, mean ± S.E. / 7S PFC/10^6 spleen cells, mean ± S.E. / Mean body weight gain: 8 days; for Spleen weight, mean ± S.E.: control 125 ± 16; for 7S PFC/10^6 spleen cells, mean ± S.E.: control 1045 ± 202; for Mean body weight gain: control +1.0. How it is done:
The effect of KH-125 on antibody production in ddY mice was examined by Cunningham and Szenberg's plaque technique (Immunology, 14, 599, 1968) and compared with other agents.
Mice were immunized by intravenous injection of washed sheep erythrocytes (4 × 10^8 cells/mouse). Administration of KH-125 was made orally for 4 consecutive days from the day of antigen injection. 19S Plaque-forming cells (PFC) were counted 4 days after immunization.
In comparative experiment, test agents were administered intraperitoneally for 8 consecutive days from one day before immunization. 7S PFC's were counted 9 days after immunization.

The conditions of data set [1]: established immunosuppressive drugs; cited from earlier work.
The next data set has as its system adjuvant arthritis. The data set can be described thus: Adjuvant arthritis in rats, prophylactic experiment. To be noted: for increase in arthritis score / swelling of adjuvant-injected and non-injected feet: once daily for 17 days.
For data set [2], the system named is antibody formation to sheep erythrocytes. The data set can be described thus: Screening for ability to suppress antibody formation to sheep erythrocytes in mice. Type of data set: in vivo. The procedure:
In an attempt to find an immunosuppressive agent having a lowered toxicity, about fifty acid hydrazides, mainly amino acid hydrazide derivatives, were synthesized and screened for their ability to suppress the antibody formation to sheep erythrocytes in mice. […] Further detailed pharmacological and toxicological studies were then performed about KH-125.

A short description of data set [3]: Acute toxicity in mice (LD50). Type of data set: in vivo, ddY mice. To be noted: mouse, in vivo. The procedure: (§1) The acute toxicity of KH-125 was studied in both sexes of ddY mice and Wistar rats. The LD50 values were calculated by the method of Litchfield and Wilcoxon (J. Pharmacol. Exptl. Ther., 96, 99, 1949).
A further data set deals with ddY mice. The data set can be described thus: Acute toxicity in mice (LD50). To be noted: mice, male vs female. Format: in vivo. How it is done: as §1
A short description of data set [4]: Acute toxicity in rats (LD50). Type of data set: in vivo, Wistar rats. To be noted: rat, in vivo. How it is done:
as §1

Data set [5] has as its system Wistar rats. The data set can be described thus: Acute toxicity in rats (LD50). Type of data set: in vivo. To be noted: rats, male vs female. How it is done:
as §1

Data set [6] relates to Wistar rats. Put plainly: Chronic toxicity study, 6 months oral. Format: in vivo. The procedure: The chronic toxicity study of KH-125 was carried out in Wistar rats of both sexes. Rats were treated orally with KH-125 for 6 months at the dose levels of 0 (control), 10, 20 and 40 mg/kg/day.
The test system of another data set is 19S plaque-forming cells. The data set can be described thus: Antibody production to sheep erythrocytes, 19S plaque-forming cells (oral administration). Format: in vivo, ddY mice. To be noted: 4 days; for Mean body weight gain: control +0.8.
Data set [7] deals with nephrotoxic nephritis. The data set can be described thus: Nephrotoxic nephritis in rats, prophylactic experiment. Type of data set: in vivo, Wistar rats.
Method: Protein-uria was measured 18 days after nephrotoxin injection, then for electron microscopic examination the rats were killed 2 days later.
Urinary protein was measured 18 days after the nephrotoxin-injection, and then the nephrotic rats were sacrificed 2 days later for histopathological examinations.
Data set [8] relates to nephrotoxic nephritis. Put plainly: Nephrotoxic nephritis in rats, comparative experiment. Format: in vivo, Wistar rats. To be noted: p.o. once daily, 15 days; protein-uria, fusion index, basement membrane thickening. The procedure:
Protein-uria was measured 18 days after nephrotoxin injection, then for electron microscopic examination the nephrotic rats were killed 3 days later. See legend of FIG. 2 for other details.
The effect of KH-125 on nephrotoxic nephritis in Wistar rats was evaluated from the following three points: (1) urinary protein measurements, (2) electron microscopic findings and (3) light microscopic findings. Nephrotic rats were prepared according to Shibata's method. (Ths Saishin-Igaku, 20, 1089, 1965).
In a comparative experiment, test agents were administered once daily: KH-125, 15 days during days 0 - 10 and 15 - 18 (p.o.); 6-mercaptopurine (6-MP), 6 days during days 0 - 5 (p.o.); cyclophosphamide, 11 days during days 0 - 10 (i.p.); and prednisolone, 11 days during days 0 - 10 (i.p.), starting from the day of nephrotoxin-injection. Urinary protein was measured 18 days after the injection of nephrotoxin, and then the animals were sacrificed 3 days later for histopathological examinations.

For another data set, the system named is rats, rabbits and mice. Put plainly: Subacute and chronic toxicity, teratological and carcinogenic studies (summary). Type of data set: in vivo. To be noted: subacute, chronic. The procedure:
(§2) Its toxicological properties were evaluated by subacute and chronic toxicity tests in rats, by teratological studies in rats and rabbits and also by carcinogenic tests in mice and rats.

The next data set relates to rats and rabbits. The data set can be described thus: Teratological studies. Format: in vivo. The procedure: as §2
The next data set relates to mice and rats. Put plainly: Carcinogenic tests. Type of data set: in vivo. How it is done: as §2
Setting [9] is: 6 months, 10, 20 and 40 mg/kg/day.
The mark [10] stands for this setting: oral, electron microscopic findings.

From the text for 19S plaque-forming cells: Mice were immunized by intravenous injection of washed sheep erythrocytes (4 × 10^8 cells/mouse). […] 19S Plaque-forming cells (PFC) were counted 4 days after immunization.

As for `C[C@]12C=CC(=O)C=C1CC[C@@H]1[C@@H]2[C@@H](O)C[C@@]2(C)[C@H]1CC[C@]2(O)C(=O)CO` [prednisolone], in the data set on 7S plaque-forming cells (4 mg/kg/day), the “Spleen weight, mean ± S.E.” value worked out at 116 ± 19 mg and the “7S PFC/10^6 spleen cells, mean ± S.E.” value is reported as 706 ± 178 7SPFC/10^6 spleen cells.

Regarding `Sc1ncnc2nc[nH]c12` [6-mercaptopurine, reference compound], the “Spleen weight, mean ± S.E.” value with 7S plaque-forming cells (30 mg/kg/day) was 103 ± 12 mg. The “7S PFC/10^6 spleen cells, mean ± S.E.” value in the data set with 7S plaque-forming cells (30 mg/kg/day, p < 0.05) was 385 ± 83 7SPFC/10^6 spleen cells. In addition, in data set [1], the “teratogenic and carcinogenic effect” value is reported as “inevitably shared”. For the same compound, the “rats died during the experiment” value with adjuvant arthritis (oral, 30 mg/kg/day, 17 days) is recorded as “Three of 7”. For the same compound, in the data set on adjuvant arthritis (oral), the “increase in arthritis score” value is reported as “dose-dependently suppressed”; the “swelling of adjuvant-injected and non-injected feet” value was “dose-dependently suppressed”.

For `O=P1(N(CCCl)CCCl)NCCCO1` (stereo not drawn) [cyclophosphamide], the “Spleen weight, mean ± S.E.” value in the data set on 7S plaque-forming cells (20 mg/kg/day, p < 0.05) was determined as 87 ± 7 mg. Further, the “7S PFC/10^6 spleen cells, mean ± S.E.” value in the data set with 7S plaque-forming cells (20 mg/kg/day, p < 0.01) is recorded as 61 ± 8 7SPFC/10^6 spleen cells. For the same compound, the “Mean body weight gain” value in the data set on 7S plaque-forming cells (20 mg/kg/day) is given as “+0.2 g”. For the same compound, the “teratogenic and carcinogenic effect” value in [1] was “inevitably shared”.

Regarding `NNC(=O)CCNS(=O)(=O)c1ccccc1` [KH-125, N-benzenesulfonyl-β-alanine hydrazide], the “immunosuppressive activity among about fifty acid hydrazides tested” value in [2] (mice, antibody formation to sheep erythrocytes) is given as “most potent immunosuppressive activity”. Also, in [2] (screening), the “acute toxicity among the compounds tested” value is recorded as “fairly lower acute toxicity”. The LD50 came to 1410 mg/kg in [3] (ip, female mice); 1230 mg/kg in data set [3] (ip, male mice); 1570 mg/kg in data set [3] (po, female mice); 1520 mg/kg in data set [3] (po, male mice); 1440 mg/kg in data set [3] (sc, female mice); 1150 mg/kg in data set [3] (sc, male mice). The LD50 in data set [4] (ip, female rats) was 2580 mg/kg; in data set [4] (ip, male rats), 2150 mg/kg; in data set [4] (po, female rats), greater than 4000 mg/kg; in [4] (po, male rats), greater than 4000 mg/kg; in [4] (sc, female rats) it was greater than 4000 mg/kg; in data set [4] (sc, male rats) it was greater than 4000 mg/kg. In addition, the “sex difference concerning the acute toxicity” value in the data set on ddY mice and in the data set on Wistar rats [5] was “No sex difference” in each case. The body weight gain result in the data set with Wistar rats [6] (6 months, 40 mg/kg/day) is on record as “slightly inhibited”. Further, the “erythrocyte count and hemoglobin” value with Wistar rats [6] (setting [9]) is “dose-dependent decrease”. In addition, the “general symptoms, food intake, urinalysis, and fractionation of serum protein” value with Wistar rats [6] (setting [9]) was “No significant effects”. Further, the histopathological examinations result in the data set with Wistar rats [6] (setting [9]) was “No toxic effects which could be attributed to the drug were detected”. Moreover, the “serum enzyme activities, S-GOT and S-GPT” value in the data set on Wistar rats [6] (setting [9]) is listed as “slight but dose-dependent increases”. In addition, the survival entry in the data set on Wistar rats [6] (setting [9]) is “All rats survived”. Besides, the “Spleen weight, mean ± S.E.” value with 19S plaque-forming cells (40 mg/kg/day, control 181 ± 8) is listed as 135 ± 20 mg; in the data set on 19S plaque-forming cells (80 mg/kg/day, control 181 ± 8, p < 0.05), 139 ± 9 mg; in the data set on 19S plaque-forming cells (160 mg/kg/day, control 181 ± 8), 164 ± 14 mg; in the data set with 7S plaque-forming cells (200 mg/kg/day, p < 0.01), 60 ± 8 mg. For the same compound, the “19S PFC/10^6 spleen cells, mean ± S.E.” value is given as 1383 ± 327 19S PFC/10^6 spleen cells in the data set with 19S plaque-forming cells (40 mg/kg/day, control 1905 ± 267); 368 ± 124 19S PFC/10^6 spleen cells in the data set on 19S plaque-forming cells (80 mg/kg/day, control 1905 ± 267, p < 0.01); 329 ± 46 19S PFC/10^6 spleen cells in the data set on 19S plaque-forming cells (160 mg/kg/day, control 1905 ± 267, p < 0.01). For the same compound, the “Mean body weight gain” value is “+1.0 g” in the data set on 19S plaque-forming cells (40 mg/kg/day), -0.8 g with 19S plaque-forming cells (80 mg/kg/day), -0.5 g with 19S plaque-forming cells (160 mg/kg/day) and -4.5 g in the data set on 7S plaque-forming cells (200 mg/kg/day). Besides, the “appearance of 19S PFC” value with 19S plaque-forming cells (40-160 mg/kg/day) is listed as “dose-dependently suppressed”. In addition, the “7S PFC/10^6 spleen cells, mean ± S.E.” value with 7S plaque-forming cells (200 mg/kg/day, p < 0.01) was 233 ± 63 7SPFC/10^6 spleen cells. Further, in the data set on 7S plaque-forming cells (8 consecutive days), the “suppressive effect on the appearance of 7S PFC, compared with other agents” value is recorded as “higher than that of prednisolone or 6-mercaptopurine; also recorded: less effective than cyclophosphamide”. Besides, in the data set on nephrotoxic nephritis [7] (oral), the light microscopic findings entry is listed as “good improvement of nephritis”. For the same compound, the “fusion index of epithelial foot processes” value in the data set on nephrotoxic nephritis [7] (setting [10]) is given as “improved”. Further, in the data set with nephrotoxic nephritis [7] (setting [10]), the “thickening of glomerular basement membrane” value is given as “suppressed”. In addition, in the data set on nephrotoxic nephritis [7] (oral, twice a day, 18 days after nephrotoxin injection), the protein-uria entry is “decreased dose-dependently”. Also, the “suppression of experimental nephrotoxic nephritis (summary)” value with nephrotoxic nephritis [7] (rats) is on record as “suppress adjuvant arthritis as well as experimental nephrotoxic nephritis”. For the same compound, the “suppression of nephrotoxic nephritis, compared with 6-mercaptopurine, cyclophosphamide and prednisolone” value in the data set on nephrotoxic nephritis [8] is reported as “most effectively suppressed”. For the same compound, the “toxicity compared with well-known immunosuppressive agents” value in the data set with rats, rabbits and mice is “considerably lower toxicity than well-known immunosuppressive agents”. In addition, the teratogenic effect result in the data set with rats and rabbits was “neither teratogenic nor carcinogenic effect”. Besides, the carcinogenic effect entry with mice and rats is listed as “neither teratogenic nor carcinogenic effect”. Also, in the data set with adjuvant arthritis (after withdrawal), the “rebound of foot swelling after withdrawal” value is recorded as “not prominent”. Further, in the data set with adjuvant arthritis (oral, as high as 80 mg/kg/day, 17 days), the “survival during the experiment” value is given as “survived throughout the test period”. Further, the “increase in arthritis score” value in the data set with adjuvant arthritis (oral) is reported as “dose-dependently suppressed”. Also, the “swelling of adjuvant-injected and non-injected feet” value with adjuvant arthritis (oral) is reported as “dose-dependently suppressed”. Also, in the data set with adjuvant arthritis (rats), the “suppression of adjuvant arthritis (summary)” value is “suppress adjuvant arthritis”. The “safety margin (maximal tolerated dose in repeated administration versus effective dose) relative to 6-mercaptopurine” value with adjuvant arthritis (versus 6-mercaptopurine, adjuvant arthritis) is “about 3 times”.
